Columns and labels:
[1] = target: T1, Glutamate receptor ionotropic, kainate 5 (Homo sapiens, UniProt Q16478)
T1 sequence (Q16478 whole entry): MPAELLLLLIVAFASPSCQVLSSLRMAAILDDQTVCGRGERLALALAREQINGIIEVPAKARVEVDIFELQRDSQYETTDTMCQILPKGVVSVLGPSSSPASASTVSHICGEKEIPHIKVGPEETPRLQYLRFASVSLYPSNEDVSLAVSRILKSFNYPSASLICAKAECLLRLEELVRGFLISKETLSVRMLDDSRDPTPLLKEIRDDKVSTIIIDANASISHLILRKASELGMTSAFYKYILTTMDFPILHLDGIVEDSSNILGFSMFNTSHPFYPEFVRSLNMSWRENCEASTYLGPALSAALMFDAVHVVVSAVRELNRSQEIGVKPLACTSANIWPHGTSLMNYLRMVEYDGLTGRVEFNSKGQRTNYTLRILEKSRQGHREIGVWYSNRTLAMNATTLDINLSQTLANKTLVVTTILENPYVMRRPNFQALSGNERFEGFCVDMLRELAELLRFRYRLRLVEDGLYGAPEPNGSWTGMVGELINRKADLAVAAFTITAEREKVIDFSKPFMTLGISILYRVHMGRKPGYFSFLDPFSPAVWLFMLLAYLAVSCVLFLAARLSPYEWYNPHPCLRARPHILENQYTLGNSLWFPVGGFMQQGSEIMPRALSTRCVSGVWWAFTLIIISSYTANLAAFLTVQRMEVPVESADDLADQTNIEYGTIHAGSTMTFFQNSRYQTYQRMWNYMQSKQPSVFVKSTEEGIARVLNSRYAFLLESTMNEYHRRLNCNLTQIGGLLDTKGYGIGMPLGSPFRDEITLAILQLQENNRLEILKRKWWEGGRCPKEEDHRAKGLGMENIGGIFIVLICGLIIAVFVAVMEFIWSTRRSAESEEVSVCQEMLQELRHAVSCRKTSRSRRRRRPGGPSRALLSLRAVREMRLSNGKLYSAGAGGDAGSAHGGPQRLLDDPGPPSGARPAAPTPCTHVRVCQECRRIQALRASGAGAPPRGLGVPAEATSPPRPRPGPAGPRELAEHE

[2] = target: Glutamate receptor ionotropic, kainate 3 (Homo sapiens, UniProt Q13003)
Chain of Glutamate receptor ionotropic, kainate 3 (Q13003 whole entry): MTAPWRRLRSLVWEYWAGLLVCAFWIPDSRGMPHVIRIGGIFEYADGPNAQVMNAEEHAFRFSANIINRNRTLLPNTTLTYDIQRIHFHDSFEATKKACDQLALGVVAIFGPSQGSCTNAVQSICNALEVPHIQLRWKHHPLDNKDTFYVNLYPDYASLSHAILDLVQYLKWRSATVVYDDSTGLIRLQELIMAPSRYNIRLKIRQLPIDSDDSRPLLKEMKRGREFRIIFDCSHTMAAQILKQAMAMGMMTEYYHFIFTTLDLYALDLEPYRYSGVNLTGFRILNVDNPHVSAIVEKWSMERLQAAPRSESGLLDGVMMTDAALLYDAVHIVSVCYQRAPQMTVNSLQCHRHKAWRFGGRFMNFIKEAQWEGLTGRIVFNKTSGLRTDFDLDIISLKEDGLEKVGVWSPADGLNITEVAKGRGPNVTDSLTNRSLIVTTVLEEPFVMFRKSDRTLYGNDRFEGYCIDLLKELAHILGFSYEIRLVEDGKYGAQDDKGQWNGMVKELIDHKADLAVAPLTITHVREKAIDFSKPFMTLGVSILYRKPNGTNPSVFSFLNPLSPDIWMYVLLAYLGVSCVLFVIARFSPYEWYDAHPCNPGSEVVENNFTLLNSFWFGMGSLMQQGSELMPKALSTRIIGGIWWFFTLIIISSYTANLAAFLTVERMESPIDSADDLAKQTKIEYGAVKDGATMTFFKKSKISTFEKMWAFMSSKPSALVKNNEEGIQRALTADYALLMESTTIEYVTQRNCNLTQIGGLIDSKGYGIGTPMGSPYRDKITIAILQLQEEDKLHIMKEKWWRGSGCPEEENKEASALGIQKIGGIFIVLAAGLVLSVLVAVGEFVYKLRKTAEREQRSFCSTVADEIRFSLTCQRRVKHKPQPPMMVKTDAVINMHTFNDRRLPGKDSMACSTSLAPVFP

[3] = target: Glutamate receptor ionotropic, kainate 2 (Homo sapiens, UniProt Q13002)
Chain of Glutamate receptor ionotropic, kainate 2 (Q13002 whole entry): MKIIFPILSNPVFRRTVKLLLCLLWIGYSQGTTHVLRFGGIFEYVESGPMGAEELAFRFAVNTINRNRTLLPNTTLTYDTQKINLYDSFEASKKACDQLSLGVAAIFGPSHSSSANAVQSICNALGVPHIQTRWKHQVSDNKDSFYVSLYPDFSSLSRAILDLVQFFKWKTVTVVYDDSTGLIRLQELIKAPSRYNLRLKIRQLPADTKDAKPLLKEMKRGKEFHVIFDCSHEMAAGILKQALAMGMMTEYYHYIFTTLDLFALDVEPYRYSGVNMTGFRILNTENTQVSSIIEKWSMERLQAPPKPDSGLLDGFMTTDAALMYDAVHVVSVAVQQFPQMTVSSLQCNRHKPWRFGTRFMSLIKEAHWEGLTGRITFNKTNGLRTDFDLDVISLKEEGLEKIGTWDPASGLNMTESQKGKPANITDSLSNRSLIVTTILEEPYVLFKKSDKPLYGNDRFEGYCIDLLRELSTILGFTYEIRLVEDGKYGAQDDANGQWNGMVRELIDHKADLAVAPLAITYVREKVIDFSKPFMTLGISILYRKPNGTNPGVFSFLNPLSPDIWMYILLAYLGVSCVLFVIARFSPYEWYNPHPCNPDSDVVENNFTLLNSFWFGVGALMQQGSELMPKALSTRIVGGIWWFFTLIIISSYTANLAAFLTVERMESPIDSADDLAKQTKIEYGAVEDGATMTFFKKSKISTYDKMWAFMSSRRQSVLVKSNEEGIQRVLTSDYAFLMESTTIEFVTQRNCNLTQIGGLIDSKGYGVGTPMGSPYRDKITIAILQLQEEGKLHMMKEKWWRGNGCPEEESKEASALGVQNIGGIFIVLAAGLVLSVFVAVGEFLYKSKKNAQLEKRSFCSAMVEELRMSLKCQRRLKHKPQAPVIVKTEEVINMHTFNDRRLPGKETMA

Glutamate receptor 4 = Glutamate receptor 4 (Homo sapiens, UniProt P48058)
Chain of Glutamate receptor 4 (P48058 whole entry): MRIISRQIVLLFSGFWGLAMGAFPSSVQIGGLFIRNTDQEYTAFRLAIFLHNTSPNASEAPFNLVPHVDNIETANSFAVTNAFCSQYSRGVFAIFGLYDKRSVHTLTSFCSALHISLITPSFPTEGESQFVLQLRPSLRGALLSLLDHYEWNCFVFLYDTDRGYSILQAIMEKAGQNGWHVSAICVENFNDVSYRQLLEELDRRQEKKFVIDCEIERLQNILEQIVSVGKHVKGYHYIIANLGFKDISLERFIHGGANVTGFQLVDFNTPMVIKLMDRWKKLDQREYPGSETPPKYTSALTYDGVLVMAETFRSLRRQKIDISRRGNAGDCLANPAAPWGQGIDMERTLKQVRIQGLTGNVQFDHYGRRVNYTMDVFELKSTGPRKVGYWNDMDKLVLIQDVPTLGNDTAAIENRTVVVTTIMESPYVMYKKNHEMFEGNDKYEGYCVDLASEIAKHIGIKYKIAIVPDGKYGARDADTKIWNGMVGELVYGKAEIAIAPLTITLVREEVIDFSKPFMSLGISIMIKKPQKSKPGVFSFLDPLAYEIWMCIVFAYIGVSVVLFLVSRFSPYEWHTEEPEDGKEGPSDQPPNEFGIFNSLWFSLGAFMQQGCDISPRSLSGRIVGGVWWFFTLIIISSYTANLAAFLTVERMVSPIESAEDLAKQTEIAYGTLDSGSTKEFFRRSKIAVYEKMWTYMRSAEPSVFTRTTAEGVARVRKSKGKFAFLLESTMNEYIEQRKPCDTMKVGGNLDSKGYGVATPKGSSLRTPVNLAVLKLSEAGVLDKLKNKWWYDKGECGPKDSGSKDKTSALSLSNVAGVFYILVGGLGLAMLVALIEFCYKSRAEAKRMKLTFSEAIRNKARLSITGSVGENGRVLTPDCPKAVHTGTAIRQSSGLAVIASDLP

Glutamate receptor 1 = Glutamate receptor 1 (Homo sapiens, UniProt P42261)
Chain of Glutamate receptor 1 (P42261 whole entry): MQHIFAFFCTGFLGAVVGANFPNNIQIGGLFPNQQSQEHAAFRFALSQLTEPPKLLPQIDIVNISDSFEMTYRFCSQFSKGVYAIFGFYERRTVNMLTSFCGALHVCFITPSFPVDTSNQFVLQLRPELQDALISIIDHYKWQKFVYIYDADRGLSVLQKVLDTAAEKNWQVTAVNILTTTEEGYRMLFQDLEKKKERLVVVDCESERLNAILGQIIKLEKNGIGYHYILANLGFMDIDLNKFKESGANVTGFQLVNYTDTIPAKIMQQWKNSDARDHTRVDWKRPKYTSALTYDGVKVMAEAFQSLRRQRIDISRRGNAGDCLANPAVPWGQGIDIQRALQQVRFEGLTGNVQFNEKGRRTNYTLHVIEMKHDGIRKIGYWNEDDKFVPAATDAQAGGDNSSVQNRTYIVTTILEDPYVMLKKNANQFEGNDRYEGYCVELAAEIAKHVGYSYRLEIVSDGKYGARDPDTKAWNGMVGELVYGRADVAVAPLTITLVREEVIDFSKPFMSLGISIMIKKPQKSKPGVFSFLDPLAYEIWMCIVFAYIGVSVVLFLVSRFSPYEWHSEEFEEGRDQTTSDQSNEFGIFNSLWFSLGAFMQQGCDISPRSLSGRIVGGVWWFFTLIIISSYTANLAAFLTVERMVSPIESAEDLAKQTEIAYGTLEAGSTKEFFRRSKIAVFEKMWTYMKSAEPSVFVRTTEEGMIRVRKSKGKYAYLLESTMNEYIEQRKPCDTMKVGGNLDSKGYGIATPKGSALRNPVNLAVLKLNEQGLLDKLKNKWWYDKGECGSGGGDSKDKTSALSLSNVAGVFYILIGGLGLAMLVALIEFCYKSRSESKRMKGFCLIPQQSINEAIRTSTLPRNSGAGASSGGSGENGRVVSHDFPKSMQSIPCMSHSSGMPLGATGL

Glutamate receptor 2 = Glutamate receptor 2 (Homo sapiens, UniProt P42262)
Chain of Glutamate receptor 2 (P42262 whole entry): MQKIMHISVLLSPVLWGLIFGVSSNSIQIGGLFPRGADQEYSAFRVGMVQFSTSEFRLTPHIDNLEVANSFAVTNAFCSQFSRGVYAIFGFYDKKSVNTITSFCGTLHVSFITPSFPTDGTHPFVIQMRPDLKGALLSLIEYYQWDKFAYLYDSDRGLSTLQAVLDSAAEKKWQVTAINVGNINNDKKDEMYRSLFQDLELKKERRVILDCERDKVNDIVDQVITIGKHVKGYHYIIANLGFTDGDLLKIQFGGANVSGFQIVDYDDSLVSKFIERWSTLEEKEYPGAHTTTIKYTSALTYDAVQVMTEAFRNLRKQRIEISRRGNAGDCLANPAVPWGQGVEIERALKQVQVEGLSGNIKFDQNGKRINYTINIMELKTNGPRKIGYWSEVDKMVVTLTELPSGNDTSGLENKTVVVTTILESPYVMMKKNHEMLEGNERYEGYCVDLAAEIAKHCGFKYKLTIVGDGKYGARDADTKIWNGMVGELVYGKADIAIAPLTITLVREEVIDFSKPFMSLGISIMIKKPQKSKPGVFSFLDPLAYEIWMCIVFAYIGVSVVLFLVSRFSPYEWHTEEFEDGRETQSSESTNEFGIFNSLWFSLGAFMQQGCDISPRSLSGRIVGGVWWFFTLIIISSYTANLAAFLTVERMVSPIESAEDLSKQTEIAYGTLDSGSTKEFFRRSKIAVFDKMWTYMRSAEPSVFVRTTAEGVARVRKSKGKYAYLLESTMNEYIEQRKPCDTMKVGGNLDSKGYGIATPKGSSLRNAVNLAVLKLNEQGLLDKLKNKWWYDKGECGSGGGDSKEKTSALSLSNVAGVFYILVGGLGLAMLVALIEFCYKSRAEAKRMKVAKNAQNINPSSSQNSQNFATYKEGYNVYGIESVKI

Row | SMILES | Ki [1] [µM] | Ki [2] [µM] | Ki [3] [µM] | Ki (Glutamate receptor 4) [µM] | Ki (Glutamate receptor 1) [µM] | Ki (Glutamate receptor 2) [µM]
1 | O=C(O)[C@@H]1C[C@H]2C[C@@H](CCc3nn[nH]n3)CC[C@H]2CN1 | 4.2 | > 10 | > 10 | > 10 |  | 
2 | O=C(O)c1ccc(C[C@H]2CC[C@H]3CN[C@H](C(=O)O)C[C@H]3C2)cc1 [LY 382884] | 4 | > 10 | > 10 | > 10 | > 10 | > 10
3 | O=C(O)[C@@H]1C[C@H]2C[C@@H](CS(=O)(=O)c3nnc[nH]3)CC[C@H]2CN1 [LY-302679] | 3.41 |  |  |  |  | 
4 | CCC(C)OC(=O)[C@@H]1C[C@H]2C[C@@H](Oc3ccccc3-c3nnn[nH]3)CC[C@H]2CN1 (some centres undefined) [LY-467711] | 7.4 |  |  |  |  | > 10
5 | CCC(CC)COC(=O)[C@@H]1C[C@H]2C[C@@H](Nc3ccccc3-c3nnn[nH]3)CC[C@H]2CN1 [LY-525327] | > 10 |  |  |  |  | > 10

These reach a lower Ki [1]. Values come first.

Row | Ki [1] [µM] | Ki [2] [µM] | Ki [3] [µM] | Ki (Glutamate receptor 4) [µM] | Ki (Glutamate receptor 1) [µM] | Ki (Glutamate receptor 2) [µM] | SMILES
6 | 3.06 |  |  |  |  | > 10 | O=C(O)[C@@H]1C[C@H]2CC(COCc3nnn[nH]3)CC[C@H]2CN1 (some centres undefined) [LY-294486]
7 | 1.69 |  |  |  |  |  | O=C(O)[C@@H]1C[C@H]2C[C@@H](Oc3ccccc3-c3nnn[nH]3)CC[C@H]2CN1 [LY-458545]
8 | 1.55 |  |  |  |  |  | O=C(O)[C@@H]1C[C@H]2C[C@@H](Nc3ccccc3-c3nnn[nH]3)CC[C@H]2CN1 [LY 457691]
9 | 0.05 |  | > 10 | > 10 | > 10 | > 10 | O=C(O)C1CC(F)(F)CN1C[C@H]1CC[C@H]2CN[C@H](C(=O)O)C[C@H]2C1 (some centres undefined) [LY-466195]

From BindingDB's records for doi:10.1124/jpet.106.101428 (Eli Lilly, 2006)
